US6610684B2, “Fused azepinone cyclin dependent kinase inhibitors” (The United States of America as represented by the …, priority 1998, dated 2003)
Like-named read-outs stand apart in the source and are kept apart here.

Assays:
[1] = Plasma pharmacokinetics after single i.v. dose; assay type: in vivo, Sprague Dawley rats; conditions: Sprague-Dawley, iv, rat

melting point	Compound	further results
> 330 °C	COc1ccc2[nH]c3c(c2c1)CC(=O)Nc1ccccc1-3 [Example 9-OCH3, 7,12-dihydro-9-methoxy-indolo[3,2-d][1]benzazepin-6(5H)-one]	
308 to 310 °C (dec.)	O=C1Cc2c([nH]c3ccc(Br)cc23)-c2cc(C[C@@H]3CO3)ccc2N1 [Example 34]	

Continued, compound first:

Compound	melting point	further results
COc1cc2c(cc1OC)-c1[nH]c3ccc(C#N)cc3c1CC(=O)N2 [2,3-dimethoxy, 9-cyano, 2,3-dimethoxy-6-oxo-5,6,7,12-tetrahydro-indolo[3,2-d][1]benzazepine-9-carbonitrile]	> 330 °C	
COc1cc2c(cc1OC)-c1[nH]c3ccc([N+](=O)[O-])cc3c1CC(=O)N2 [2,3-dimethoxy, 9-nitro, 2,3-dimethoxy-9-nitro-7,12-dihydro-indolo[3,2-d][1]benzazepin-6(5H)-one]	> 330 °C	
O=C1Cc2c([nH]c3ccc([N+](=O)[O-])cc23)-c2cc(Br)ccc2N1 [2-Br,9-nitro, 2-bromo-9-nitro-7,12-dihydro-indolo[3,2-d][1]benzazepin-6(5H)-one]	> 330 °C	
O=C1Cc2c([nH]c3ccc(C(F)(F)F)cc23)-c2cc(C#CC3(O)CCCCC3)ccc2N1 [2-[2-(1-hydroxycyclohexyl)-ethinyl]-9-trifluoromethyl-7,12-dihydro-indolo[3,2-d][1]-benzazepin-6(5H)-one]	> 330 °C	
COOC/C=C/c1ccc2c(c1)-c1[nH]c3ccc(C(F)(F)F)cc3c1CC(=O)N2 [3-(6-oxo-9-trifluoromethyl-5,6,7,12-tetrahydro-indolo[3,2d][1]benzazepin-2-yl)-acrylic acid methyl ester]	> 330 °C	
S=C1Cc2c([nH]c3ccc(Br)cc23)-c2ccccc2N1 [6 = S, 9-Br, 9-bromo-7,12-dihydro-indolo[3,2-d][1]benzazepine-6(5H) -thione]	> 330 °C	
O=C1Cc2c([nH]c3ccccc23)-c2cc(Br)ccc2N1 [Example 2-Br, 2-bromo-7,12-dihydro-indolo[3,2-d][1]benzazepin-6(5H)-one]	> 330 °C	
O=C1Cc2c([nH]c3ccc([N+](=O)[O-])cc23)-c2ccccc2N1 [Example 9-nitro, 9-nitro-7,12-dihydro-indolo[3,2-d][1]benzazepin-6(5H)-one]		clearance ([1]; single i.v. 5 mg/kg in DMSO): 16 mL/min/kg; half-life ([1]; single i.v. 5 mg/kg in DMSO, read-out: half life in the plasma): 46 min; clearance ([1]; single i.v. 10 mg/kg in DMSO): 14 mL/min/kg; half-life ([1]; single i.v. 10 mg/kg in DMSO, read-out: half life in plasma): 66 min
